21 compounds from ChEMBL document CHEMBL1144534, “Molecular modeling of some 1H-benzimidazole derivatives with biological activity against Entamoeba histolytica: a comparative molecular field analysis study” (Bioorg Med Chem, 2007) can be followed below.

What is called IC50 is the concentration at which inhibition is half-maximal. High values mean a need for much substance, low ones inhibition by little substance.

This experiment relates to Entamoeba histolytica. Put plainly: Antiamoebic activity against Entamoeba histolytica. The class given is functional, organism-based.
`Cc1nc2cc(Cl)c(Cl)cc2n1C` showed a half-inhibitory concentration (IC50) of 12.9 nM.

As to `Cn1c(S)nc2ccccc21`, the IC50 is 6.03 nM. This IC50 is about 2.1-fold lower than that of the compound before.

Take `Cc1nc2ccccc2n1C`: inhibition was half-maximal at 61.7 nM (IC50).

Take `CSc1nc2ccc(Cl)cc2n1C`: 575 nM corresponded to half-maximal inhibition (IC50).

`CSc1nc2cc(Cl)c(Cl)cc2n1C` showed an IC50 of 1050 nM.

For the compound `CSc1nc2ccccc2n1C`, the IC50 is 195 nM.

The compound `FC(F)(F)C(F)(F)c1nc2cc(Cl)c(Cl)cc2[nH]1` had an IC50 of 209 nM.

With `Cc1nc2cc(Cl)ccc2n1C`, the IC50 is 5.01 nM.

Compound `O=[N+]([O-])c1cc2nc(C(F)(F)F)[nH]c2cc1[N+](=O)[O-]` showed an IC50 of 1350 nM.

Consider `FC(F)(F)c1nc2cc(Br)ccc2[nH]1`, for which the IC50 was 1320 nM.

Regarding `FC(F)(F)c1nc2c(Br)cc(Br)cc2[nH]1`, inhibition was half-maximal at 50.1 nM (IC50). Compared with the last compound, the IC50 is about 26-fold lower.

Turning to `Cn1c(S)nc2cc(Cl)c(Cl)cc21`, the half-inhibitory concentration (IC50) is 129 nM. Against the preceding compound, the IC50 is about 2.6-fold higher.

`FC(F)(F)c1nc2cc(Br)c(Br)cc2[nH]1` gave a concentration for half-maximal inhibition (IC50) of 427 nM.

Consider `Cc1nc2ccc(Cl)cc2n1C`, for which the midpoint of inhibition, the IC50, lay at 204 nM.

`FC(F)(F)c1nc2c(Br)c(Br)c(Br)c(Br)c2[nH]1` showed a concentration for half-maximal inhibition (IC50) of 302 nM. This IC50 and that of the compound before are within 1.5-fold of each other.

On to `Cn1c(N)nc2cc(Cl)c(Cl)cc21`, for which it took 37.2 nM to reach half-maximal inhibition (IC50).

In turn, `Cn1c(S)nc2cc(Cl)ccc21` showed a half-maximal inhibitory concentration (IC50) of 10 nM. Against the preceding compound, the IC50 is about 3.7-fold lower.

Turning to `CSc1nc2cc(Cl)ccc2n1C`, the IC50 is 37.2 nM.

Regarding `Cn1c(N)nc2ccc(Cl)cc21`, half-maximal inhibition (IC50) was put at 245 nM.

`Cn1c(S)nc2ccc(Cl)cc21` showed an IC50 of 3800 nM. This IC50 is about 16-fold higher than that of the compound before.

`FC(F)(F)C(F)(F)c1nc2c(Br)c(Br)c(Br)c(Br)c2[nH]1` had an IC50 of 214 nM.
